According to ChEMBL document CHEMBL5291721, “A preclinical secondary pharmacology resource illuminates target-adverse drug reaction associations of marketed drugs” (Nat Commun, 2023):

Tests used:
[1] = molecular target: T1, Androgen receptor (Rattus norvegicus, UniProt P15207)
T1 sequence (P15207 whole entry): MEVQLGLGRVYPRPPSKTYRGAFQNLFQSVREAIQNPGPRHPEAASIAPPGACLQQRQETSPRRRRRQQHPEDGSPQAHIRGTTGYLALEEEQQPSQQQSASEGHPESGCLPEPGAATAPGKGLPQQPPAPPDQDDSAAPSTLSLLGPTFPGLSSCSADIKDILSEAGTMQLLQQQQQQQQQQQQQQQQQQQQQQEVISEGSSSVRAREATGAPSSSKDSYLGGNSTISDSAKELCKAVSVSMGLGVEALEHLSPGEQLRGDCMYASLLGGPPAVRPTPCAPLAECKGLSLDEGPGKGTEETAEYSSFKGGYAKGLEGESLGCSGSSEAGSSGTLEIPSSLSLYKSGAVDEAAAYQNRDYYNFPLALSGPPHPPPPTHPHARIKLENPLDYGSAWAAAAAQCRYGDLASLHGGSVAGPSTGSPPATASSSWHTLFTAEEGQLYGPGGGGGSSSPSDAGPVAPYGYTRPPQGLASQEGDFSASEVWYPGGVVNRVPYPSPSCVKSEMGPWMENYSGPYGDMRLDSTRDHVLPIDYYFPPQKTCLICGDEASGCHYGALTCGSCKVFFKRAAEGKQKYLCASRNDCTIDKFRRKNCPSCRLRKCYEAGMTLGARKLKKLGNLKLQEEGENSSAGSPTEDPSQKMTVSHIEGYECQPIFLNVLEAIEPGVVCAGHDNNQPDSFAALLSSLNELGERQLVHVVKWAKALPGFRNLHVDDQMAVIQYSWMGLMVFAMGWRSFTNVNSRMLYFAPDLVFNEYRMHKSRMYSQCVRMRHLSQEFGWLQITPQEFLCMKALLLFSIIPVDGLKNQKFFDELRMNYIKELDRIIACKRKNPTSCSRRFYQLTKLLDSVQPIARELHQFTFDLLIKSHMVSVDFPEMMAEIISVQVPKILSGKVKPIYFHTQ

[2] = molecular target: Gamma-aminobutyric acid receptor subunit alpha-1/alpha-2/beta-2/gamma-2 (Homo sapiens, UniProt P14867+P18507+P47869+P47870); type: functional, cell-based
[3] = molecular target: T2, Histamine H1 receptor (Homo sapiens, UniProt P35367); type: functional, cell-based
T2 sequence (P35367 whole entry): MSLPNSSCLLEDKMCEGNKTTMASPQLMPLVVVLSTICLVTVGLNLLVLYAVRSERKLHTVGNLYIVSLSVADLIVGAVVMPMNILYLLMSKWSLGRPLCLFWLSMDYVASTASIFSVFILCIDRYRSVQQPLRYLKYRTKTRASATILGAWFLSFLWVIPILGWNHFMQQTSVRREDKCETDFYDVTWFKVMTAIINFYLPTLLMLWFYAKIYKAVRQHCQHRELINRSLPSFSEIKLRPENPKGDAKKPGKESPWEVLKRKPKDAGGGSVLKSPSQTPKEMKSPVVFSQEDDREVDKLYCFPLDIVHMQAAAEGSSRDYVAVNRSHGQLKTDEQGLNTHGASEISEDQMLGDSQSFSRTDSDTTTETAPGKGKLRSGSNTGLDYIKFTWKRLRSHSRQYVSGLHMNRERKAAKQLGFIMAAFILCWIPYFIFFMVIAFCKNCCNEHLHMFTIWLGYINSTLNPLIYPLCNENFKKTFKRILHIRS

[4] = molecular target: T2, Histamine H1 receptor; type: functional, cell-based; remark: listed apart in the source
[5] = molecular target: T3, Peroxisome proliferator-activated receptor gamma (Homo sapiens, UniProt P37231); type: functional
T3 sequence (P37231 whole entry): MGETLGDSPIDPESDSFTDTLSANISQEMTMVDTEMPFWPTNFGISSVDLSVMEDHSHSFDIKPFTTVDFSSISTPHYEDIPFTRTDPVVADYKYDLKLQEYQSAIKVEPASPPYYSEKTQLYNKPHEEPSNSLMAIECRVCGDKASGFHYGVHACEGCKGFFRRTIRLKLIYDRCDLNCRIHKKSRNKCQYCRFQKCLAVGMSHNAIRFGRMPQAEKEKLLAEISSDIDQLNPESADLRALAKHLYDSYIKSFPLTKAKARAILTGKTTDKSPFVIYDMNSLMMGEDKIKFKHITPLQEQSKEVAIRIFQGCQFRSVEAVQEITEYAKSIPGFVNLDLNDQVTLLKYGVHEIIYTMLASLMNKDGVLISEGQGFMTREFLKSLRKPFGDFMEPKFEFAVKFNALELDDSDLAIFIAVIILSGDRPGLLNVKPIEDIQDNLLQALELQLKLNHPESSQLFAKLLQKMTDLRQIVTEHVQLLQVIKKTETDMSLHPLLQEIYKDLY

[6] = molecular target: T3, Peroxisome proliferator-activated receptor gamma; type: functional; remark: listed apart in the source
[7] = molecular target: T4, Alpha-2A adrenergic receptor (Homo sapiens, UniProt P08913)
T4 sequence (P08913 whole entry): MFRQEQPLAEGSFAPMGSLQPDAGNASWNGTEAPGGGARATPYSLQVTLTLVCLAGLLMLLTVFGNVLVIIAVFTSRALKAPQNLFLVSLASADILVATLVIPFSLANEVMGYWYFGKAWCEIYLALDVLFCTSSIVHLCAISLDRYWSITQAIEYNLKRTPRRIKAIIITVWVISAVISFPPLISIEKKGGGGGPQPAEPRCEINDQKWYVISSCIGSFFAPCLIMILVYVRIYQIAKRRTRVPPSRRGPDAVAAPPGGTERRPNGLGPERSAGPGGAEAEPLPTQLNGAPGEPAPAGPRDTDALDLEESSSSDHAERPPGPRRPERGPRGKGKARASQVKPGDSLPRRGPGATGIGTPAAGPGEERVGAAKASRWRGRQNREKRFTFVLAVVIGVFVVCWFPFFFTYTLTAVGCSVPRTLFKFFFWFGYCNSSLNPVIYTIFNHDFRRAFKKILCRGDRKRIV

[8] = molecular target: 5-hydroxytryptamine receptor 2A (Homo sapiens, UniProt P28223)
[9] = molecular target: Beta-3 adrenergic receptor (Homo sapiens, UniProt P13945)
Chain of Beta-3 adrenergic receptor (P13945 whole entry): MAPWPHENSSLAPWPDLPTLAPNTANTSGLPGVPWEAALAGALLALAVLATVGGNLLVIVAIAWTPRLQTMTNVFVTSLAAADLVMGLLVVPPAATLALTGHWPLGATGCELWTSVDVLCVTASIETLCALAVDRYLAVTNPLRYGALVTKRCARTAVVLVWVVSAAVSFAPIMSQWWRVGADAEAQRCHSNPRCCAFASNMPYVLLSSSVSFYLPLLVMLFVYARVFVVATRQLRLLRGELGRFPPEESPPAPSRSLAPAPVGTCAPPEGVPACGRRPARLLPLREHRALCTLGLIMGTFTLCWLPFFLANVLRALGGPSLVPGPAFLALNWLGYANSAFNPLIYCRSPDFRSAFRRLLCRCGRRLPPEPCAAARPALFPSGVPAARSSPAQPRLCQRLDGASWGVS

[10] = molecular target: Voltage-dependent N-type calcium channel subunit alpha-1B (Rattus norvegicus, UniProt Q02294); type: functional
Chain of Voltage-dependent N-type calcium channel subunit alpha-1B (Q02294 whole entry): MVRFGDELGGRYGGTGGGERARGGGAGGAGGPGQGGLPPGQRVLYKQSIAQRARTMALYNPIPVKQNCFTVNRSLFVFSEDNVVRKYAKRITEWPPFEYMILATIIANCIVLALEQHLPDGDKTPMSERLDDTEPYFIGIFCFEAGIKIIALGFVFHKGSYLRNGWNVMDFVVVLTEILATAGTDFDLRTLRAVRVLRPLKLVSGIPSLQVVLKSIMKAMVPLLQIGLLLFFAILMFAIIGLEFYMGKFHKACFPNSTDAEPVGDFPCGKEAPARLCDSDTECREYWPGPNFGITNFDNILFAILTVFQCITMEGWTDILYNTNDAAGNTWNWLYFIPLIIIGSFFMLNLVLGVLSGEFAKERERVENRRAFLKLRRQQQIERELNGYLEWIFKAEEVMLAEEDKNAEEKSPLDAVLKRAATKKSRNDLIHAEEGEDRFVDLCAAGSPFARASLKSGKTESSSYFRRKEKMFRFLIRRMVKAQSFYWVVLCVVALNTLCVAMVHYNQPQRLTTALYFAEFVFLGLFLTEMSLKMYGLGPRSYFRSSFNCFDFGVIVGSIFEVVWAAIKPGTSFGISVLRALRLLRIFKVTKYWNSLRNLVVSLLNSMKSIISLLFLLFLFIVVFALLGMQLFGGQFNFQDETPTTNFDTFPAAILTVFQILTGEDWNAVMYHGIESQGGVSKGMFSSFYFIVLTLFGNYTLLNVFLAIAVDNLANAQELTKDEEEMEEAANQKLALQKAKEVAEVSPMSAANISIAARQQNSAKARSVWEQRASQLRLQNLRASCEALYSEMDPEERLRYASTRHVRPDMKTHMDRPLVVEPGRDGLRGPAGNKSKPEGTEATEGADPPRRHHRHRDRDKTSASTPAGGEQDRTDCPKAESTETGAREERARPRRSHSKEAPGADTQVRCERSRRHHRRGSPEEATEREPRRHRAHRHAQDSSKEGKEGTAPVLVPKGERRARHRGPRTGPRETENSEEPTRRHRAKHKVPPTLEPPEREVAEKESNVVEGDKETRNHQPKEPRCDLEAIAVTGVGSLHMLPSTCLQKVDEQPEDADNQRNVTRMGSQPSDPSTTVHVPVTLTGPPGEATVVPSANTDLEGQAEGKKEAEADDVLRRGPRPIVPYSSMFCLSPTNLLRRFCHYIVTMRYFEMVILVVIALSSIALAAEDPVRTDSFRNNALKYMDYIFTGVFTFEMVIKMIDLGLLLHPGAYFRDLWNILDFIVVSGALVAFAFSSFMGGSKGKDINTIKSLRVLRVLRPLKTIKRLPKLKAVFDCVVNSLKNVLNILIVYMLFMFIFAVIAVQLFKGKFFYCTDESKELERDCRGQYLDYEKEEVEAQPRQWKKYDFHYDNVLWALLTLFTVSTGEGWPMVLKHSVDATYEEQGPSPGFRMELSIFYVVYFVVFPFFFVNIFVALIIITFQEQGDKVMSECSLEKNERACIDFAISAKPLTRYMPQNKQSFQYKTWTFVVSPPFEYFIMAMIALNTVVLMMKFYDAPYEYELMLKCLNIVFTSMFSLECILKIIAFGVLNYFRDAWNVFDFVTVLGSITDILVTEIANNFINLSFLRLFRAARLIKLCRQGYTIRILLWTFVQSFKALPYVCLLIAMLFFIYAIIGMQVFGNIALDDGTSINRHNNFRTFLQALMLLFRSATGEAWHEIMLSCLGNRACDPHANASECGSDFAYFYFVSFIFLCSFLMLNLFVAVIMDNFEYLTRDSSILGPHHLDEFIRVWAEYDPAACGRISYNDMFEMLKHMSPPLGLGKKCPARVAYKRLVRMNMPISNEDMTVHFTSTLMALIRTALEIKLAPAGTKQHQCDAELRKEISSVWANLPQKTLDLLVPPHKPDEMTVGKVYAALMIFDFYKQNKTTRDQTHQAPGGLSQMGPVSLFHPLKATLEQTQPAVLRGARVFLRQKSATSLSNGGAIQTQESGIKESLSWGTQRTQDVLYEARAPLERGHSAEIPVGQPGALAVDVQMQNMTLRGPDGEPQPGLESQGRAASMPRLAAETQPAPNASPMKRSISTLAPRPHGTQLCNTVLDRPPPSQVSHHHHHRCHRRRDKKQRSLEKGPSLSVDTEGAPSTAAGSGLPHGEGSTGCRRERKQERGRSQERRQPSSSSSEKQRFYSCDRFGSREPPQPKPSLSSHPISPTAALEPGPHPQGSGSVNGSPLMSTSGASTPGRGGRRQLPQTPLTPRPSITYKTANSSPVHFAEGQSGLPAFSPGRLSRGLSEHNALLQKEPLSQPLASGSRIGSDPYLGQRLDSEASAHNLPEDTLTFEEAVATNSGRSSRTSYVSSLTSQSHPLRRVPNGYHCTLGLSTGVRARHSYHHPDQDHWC

[11] = molecular target: Histamine H2 receptor (Homo sapiens, UniProt P25021)
Chain of Histamine H2 receptor (P25021 whole entry): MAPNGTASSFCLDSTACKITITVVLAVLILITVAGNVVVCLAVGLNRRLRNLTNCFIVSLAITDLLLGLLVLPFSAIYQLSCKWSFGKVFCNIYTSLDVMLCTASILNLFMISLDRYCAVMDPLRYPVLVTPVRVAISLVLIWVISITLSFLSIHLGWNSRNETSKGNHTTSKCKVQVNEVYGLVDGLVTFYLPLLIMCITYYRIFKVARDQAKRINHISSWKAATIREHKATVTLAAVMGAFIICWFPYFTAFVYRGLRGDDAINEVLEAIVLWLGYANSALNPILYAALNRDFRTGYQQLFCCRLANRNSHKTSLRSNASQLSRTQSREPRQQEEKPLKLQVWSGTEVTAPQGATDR

[12] = molecular target: Substance-P receptor (Homo sapiens, UniProt P25103)
Chain of Substance-P receptor (P25103 whole entry): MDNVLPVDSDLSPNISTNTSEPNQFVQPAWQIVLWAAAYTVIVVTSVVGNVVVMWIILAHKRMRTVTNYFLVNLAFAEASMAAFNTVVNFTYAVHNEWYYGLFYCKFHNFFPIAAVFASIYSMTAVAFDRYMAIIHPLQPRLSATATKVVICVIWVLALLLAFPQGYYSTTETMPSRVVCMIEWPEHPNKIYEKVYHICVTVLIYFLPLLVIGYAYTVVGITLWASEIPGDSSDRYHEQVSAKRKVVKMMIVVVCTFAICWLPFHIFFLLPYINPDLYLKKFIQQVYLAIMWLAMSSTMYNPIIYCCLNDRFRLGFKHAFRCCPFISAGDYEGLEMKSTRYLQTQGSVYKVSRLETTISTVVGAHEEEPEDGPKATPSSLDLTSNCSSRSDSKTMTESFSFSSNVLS

[13] = molecular target: T5, 5-hydroxytryptamine receptor 1A (Homo sapiens, UniProt P08908)
T5 sequence (P08908 whole entry): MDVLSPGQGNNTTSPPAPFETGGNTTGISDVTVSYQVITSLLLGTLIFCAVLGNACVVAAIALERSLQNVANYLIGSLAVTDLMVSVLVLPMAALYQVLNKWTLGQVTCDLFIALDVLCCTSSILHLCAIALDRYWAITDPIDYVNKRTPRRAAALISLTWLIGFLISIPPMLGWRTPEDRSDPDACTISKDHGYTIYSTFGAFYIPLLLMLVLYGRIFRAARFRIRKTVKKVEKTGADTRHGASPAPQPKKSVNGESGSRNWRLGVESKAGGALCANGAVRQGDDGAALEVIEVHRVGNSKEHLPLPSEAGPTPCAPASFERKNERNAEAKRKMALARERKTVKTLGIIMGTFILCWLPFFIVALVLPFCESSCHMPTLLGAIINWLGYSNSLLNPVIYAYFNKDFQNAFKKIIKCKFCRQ

[14] = molecular target: D(1A) dopamine receptor (Homo sapiens, UniProt P21728)
Chain of D(1A) dopamine receptor (P21728 whole entry): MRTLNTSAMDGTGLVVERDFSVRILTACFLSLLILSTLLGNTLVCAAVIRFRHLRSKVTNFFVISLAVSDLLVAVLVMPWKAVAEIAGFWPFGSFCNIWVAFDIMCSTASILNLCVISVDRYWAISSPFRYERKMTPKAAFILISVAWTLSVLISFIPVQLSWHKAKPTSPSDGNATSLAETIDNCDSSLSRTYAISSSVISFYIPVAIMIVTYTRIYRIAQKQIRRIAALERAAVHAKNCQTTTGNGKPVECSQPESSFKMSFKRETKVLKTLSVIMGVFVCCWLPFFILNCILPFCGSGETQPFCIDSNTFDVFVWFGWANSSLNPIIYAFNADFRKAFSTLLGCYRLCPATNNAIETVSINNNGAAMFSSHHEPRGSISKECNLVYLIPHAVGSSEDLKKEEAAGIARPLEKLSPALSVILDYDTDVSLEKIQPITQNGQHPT

[15] = molecular target: Estrogen receptor beta (Homo sapiens, UniProt Q92731)
Chain of Estrogen receptor beta (Q92731 whole entry): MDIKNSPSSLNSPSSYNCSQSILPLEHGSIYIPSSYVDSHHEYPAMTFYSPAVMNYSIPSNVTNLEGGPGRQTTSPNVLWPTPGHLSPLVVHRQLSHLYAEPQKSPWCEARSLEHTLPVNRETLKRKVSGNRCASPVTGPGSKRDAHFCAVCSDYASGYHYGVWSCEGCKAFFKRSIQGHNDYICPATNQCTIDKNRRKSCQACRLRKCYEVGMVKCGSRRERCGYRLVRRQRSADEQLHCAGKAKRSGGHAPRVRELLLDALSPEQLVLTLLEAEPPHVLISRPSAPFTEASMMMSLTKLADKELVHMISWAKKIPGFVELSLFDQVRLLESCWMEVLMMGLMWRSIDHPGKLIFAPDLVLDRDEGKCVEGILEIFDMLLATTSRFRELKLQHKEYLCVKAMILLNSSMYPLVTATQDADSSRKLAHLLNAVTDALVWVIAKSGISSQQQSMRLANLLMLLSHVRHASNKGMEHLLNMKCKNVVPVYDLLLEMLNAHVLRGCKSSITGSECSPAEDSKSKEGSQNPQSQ
Further: assay procedure not described here.

SMILES | AC50 [1] | AC50 [2] | AC50 [3] | AC50 [4] | AC50 [7] | AC50 [8] | AC50 [10] | AC50 [13] | other results
NS(=O)(=O)c1cc2c(cc1C(F)(F)F)NC(Cc1ccccc1)NS2(=O)=O (stereo unspecified) [BENDROFLUMETHIAZIDE] | > 10 µM |  |  |  |  |  |  |  | 
CCN(CC)C(=O)C1CN2CCc3cc(OC)c(OC)cc3C2CC1OC(C)=O (stereo unspecified) [BENZQUINAMIDE] | > 10 µM | > 30 µM | > 30 µM | > 30 µM | 3.03 µM | 0.588 µM |  |  | AC50 [5]: > 30 µM; AC50 [6]: > 30 µM
CCCC(C)(COC(N)=O)COC(=O)NC(C)C (stereo unspecified) [CARISOPRODOL] |  |  | > 30 µM | > 30 µM | > 10 µM | > 10 µM | > 10 µM | > 10 µM | AC50 [9]: > 30 µM; AC50 [11]: > 10 µM; AC50 [12]: > 10 µM; AC50 [14]: > 10 µM
COCCOC(=O)C1=C(C)NC(C)=C(C(=O)OC/C=C/c2ccccc2)C1c1cccc([N+](=O)[O-])c1 (stereo unspecified) [CILNIDIPINE] |  | > 30 µM | > 30 µM | > 30 µM |  |  |  |  | 
CC(C)(C)NCC(O)c1cc(Cl)c(N)c(Cl)c1 (stereo unspecified) [CLENBUTEROL] | > 30 µM | > 30 µM |  |  |  |  |  |  | 
N[C@H](Cc1cc(I)c(Oc2cc(I)c(O)c(I)c2)c(I)c1)C(=O)O [DEXTROTHYROXINE] |  |  |  |  | > 10 µM | > 10 µM | > 10 µM | > 10 µM | AC50 [9]: > 30 µM; AC50 [15]: > 30 µM; AC50 [11]: > 10 µM; AC50 [14]: > 10 µM
Clc1ccc2c(c1)C(c1ccccc1)=NCc1nncn1-2 [ESTAZOLAM] | > 30 µM |  |  |  |  |  |  | > 10 µM | 
CC(=O)OCC(CCn1cnc2cnc(N)nc21)COC(C)=O [FAMCICLOVIR] | > 30 µM |  |  |  | > 10 µM |  | > 10 µM | > 10 µM | AC50 [9]: > 30 µM; AC50 [15]: > 30 µM; AC50 [11]: > 10 µM; AC50 [12]: > 10 µM; AC50 [14]: > 10 µM
Nc1nc(F)nc2c1ncn2[C@@H]1O[C@H](COP(=O)(O)O)[C@@H](O)[C@@H]1O [FLUDARABINE PHOSPHATE] | > 30 µM |  |  |  |  |  |  |  | 
O=C(O)c1ccccc1Nc1cccc(C(F)(F)F)c1 [FLUFENAMIC ACID] | > 30 µM |  |  |  |  | 0.0771 µM | > 10 µM | > 10 µM | AC50 [9]: > 30 µM; AC50 [15]: > 30 µM
COC1=C(OC)C(=O)C(CCCCCCCCCCO)=C(C)C1=O [IDEBENONE] | > 30 µM |  |  |  | > 10 µM |  | > 10 µM | > 10 µM | AC50 [9]: > 30 µM; AC50 [15]: > 30 µM; AC50 [11]: > 10 µM; AC50 [12]: > 10 µM; AC50 [14]: > 10 µM
CC1(C)C(/C=C/C=C/C=C/C=C2\N(CCCCS(=O)(=O)O)c3ccc4ccccc4c3C2(C)C)=[N+](CCCCS(=O)(=O)[O-])c2ccc3ccccc3c21 [INDOCYANINE GREEN ACID FORM] |  | > 30 µM | > 30 µM | > 30 µM |  |  |  |  | 
CCCC[C@H](C)C[C@H](O)/C=C/[C@H]1[C@H](O)CC(=O)[C@@H]1CCCC/C=C/C(=O)O [LIMAPROST] |  | > 30 µM | > 30 µM | > 30 µM |  |  |  |  | AC50 [5]: > 30 µM; AC50 [6]: > 30 µM
CC#CCn1c(N2CCC[C@@H](N)C2)nc2c1c(=O)n(Cc1nc(C)c3ccccc3n1)c(=O)n2C [LINAGLIPTIN] | > 30 µM |  |  |  | > 10 µM | > 10 µM | > 10 µM | > 10 µM | AC50 [9]: > 30 µM; AC50 [11]: 12.3 µM; AC50 [14]: > 10 µM
Cc1ccc(NC(=O)C2(c3ccc4c(c3)OC(F)(F)O4)CC2)nc1-c1cccc(C(=O)O)c1 [LUMACAFTOR] |  |  | > 30 µM | > 30 µM |  |  |  |  | AC50 [5]: > 30 µM; AC50 [6]: > 30 µM
CCOC(=O)Nc1ccc2c(c1)N(C(=O)CCN1CCOCC1)c1ccccc1S2 [MORICIZINE] |  |  | > 30 µM | > 30 µM |  |  |  |  | AC50 [5]: > 30 µM; AC50 [6]: > 30 µM
O=C1Nc2ccc(Cl)cc2C(c2ccccc2)=NC1O (stereo unspecified) [OXAZEPAM] |  |  | > 30 µM | > 30 µM | > 10 µM | > 10 µM | > 10 µM | > 10 µM | AC50 [9]: > 30 µM; AC50 [15]: > 30 µM; AC50 [11]: > 10 µM; AC50 [12]: > 10 µM; AC50 [14]: > 10 µM
CC1(C)C(C=C(Cl)Cl)C1C(=O)OCc1cccc(Oc2ccccc2)c1 (stereo unspecified) [PERMETHRIN] | > 30 µM |  |  |  | > 10 µM |  |  |  | 
Cc1ccc(=O)n(-c2ccccc2)c1 [PIRFENIDONE] |  | > 30 µM | > 30 µM | > 30 µM |  | > 10 µM |  |  | AC50 [5]: > 30 µM; AC50 [6]: > 30 µM
NC(=O)CCC/N=C(\c1ccc(Cl)cc1)c1cc(F)ccc1O [PROGABIDE] | > 10 µM |  |  |  |  | > 10 µM |  |  | 
Cc1ccc2c(-c3ccccc3)nc(=O)n(C(C)C)c2c1 [PROQUAZONE] |  | > 30 µM | > 30 µM | > 30 µM |  |  |  |  | 
CN1CCN(c2c(F)cc3c(=O)c(C(=O)O)cn4c3c2SCC4)CC1 [RUFLOXACIN] |  | > 30 µM | > 30 µM | > 30 µM |  |  |  |  | 
CN1c2ccccc2C(NCCCCCCC(=O)O)c2ccc(Cl)cc2S1(=O)=O (stereo unspecified) [TIANEPTINE] |  | > 30 µM | > 30 µM | > 30 µM |  |  |  |  | 
N#C[C@@H]1CCCN1C(=O)CNC12CC3CC(CC(O)(C3)C1)C2 [VILDAGLIPTIN] | > 30 µM |  |  |  | > 10 µM | > 10 µM | > 10 µM | > 10 µM | AC50 [11]: > 10 µM; AC50 [12]: > 10 µM; AC50 [14]: > 10 µM
